Patent publication US9302999B2, “Substituted triazoles as herbicides” (E. I. DU PONT DE NEMOURS AND COMPANY, priority 2012, dated 2016)

Assays:
Assay type in all cases: in vivo
[1] = tested on: crabgrass, large (large crabgrass, Digitaria sanguinalis); test: Test E pre-/postemergence: crabgrass, large; conditions: Preemergence, scale 0 to 100
From the text: (§1) Seeds of plant species selected from corn (Zea mays), soybean (Glycine max), velvetleaf (Abutilon theophrasti), lambsquarters (Chenopodium album), poinsettia, wild (wild poinsettia, Euphorbia heterophylla), pigweed, palmer (palmer pigweed, Amaranthus palmeri), waterhemp (common waterhemp, Amaranthus rudis), smartweed (ladysthumb smartweed, Polygonum persicaria), surinam grass (Brachiaria decumbens), crabgrass, large (large crabgrass, Digitaria sanguinalis), crabgrass, Brazil (Brazilian crabgrass, Digitaria horizontalis), panicum, fall (fall panicum, Panicum dichotomiflorum), foxtail, giant (giant foxtail, Setaria faberii), foxtail, green (green foxtail, Setaria viridis), goosegrass (Eleusine indica), johnsongrass (Sorghum halepense), ragweed (common ragweed, Ambrosia elation), barnyardgrass (Echinochloa crus-galli), sandbur (southern sandbur, Cenchrus echinatus), arrowleaf sida (Sida rhombifolia), ryegrass, Italian (Italian ryegrass, Lolium multiflorum), dayflower, (VA) (Virginia dayflower, Commelina virginica), field bindweed (Convolvulus arvensis), cocklebur (common cocklebur, Xanthium strumarium), morningglory (Ipomoea coccinea), nightshade (eastern black nightshade, Solanum ptycanthum), kochia (Kochia scoparia), nutsedge, yellow (yellow nutsedge, Cyperus esculentus) and beggarticks (hairy beggarticks, Bidens pilosa) were planted into a silt loam soil and treated preemergence with test chemicals formulated in a non-phytotoxic solvent mixture which included a surfactant. At the same time, plants selected from these crop and weed species were planted in pots containing a growing medium comprising spaghnum peat moss, vermiculite, wetting agent and starter nutrients and treated with postemergence applications of some of the test chemicals formulated in the same manner. Plants ranged in height from 2 to 18 cm for postemergence treatments (1- to 4-leaf stage).
(§2) Treated plants and controls were maintained in a greenhouse for 14 to 21 days, after which time all species were compared to controls and visually evaluated. Plant response ratings, summarized in Table E, are based on a scale of 0 to 100 where 0 is no effect and 100 is complete control. A dash (-) response means no test result.

[2] = tested on: johnsongrass (Sorghum halepense); test: Test E pre-/postemergence: johnsongrass; conditions: Preemergence, scale 0 to 100
From the text: as §1, §2

[3] = tested on: cocklebur (common cocklebur, Xanthium strumarium); test: Test E pre-/postemergence: cocklebur; conditions: Preemergence, scale 0 to 100
From the text: as §1, §2

[4] = tested on: goosegrass (Eleusine indica); test: Test E pre-/postemergence: goosegrass; conditions: Preemergence, scale 0 to 100
From the text: as §1, §2

[5] = tested on: panicum, fall (fall panicum, Panicum dichotomiflorum); test: Test E pre-/postemergence: panicum, fall; conditions: scale 0 to 100
From the text: as §1, §2

[6] = tested on: velvetleaf (Abutilon theophrasti); test: Test E pre-/postemergence: velvetleaf; conditions: Preemergence, scale 0 to 100
From the text: as §1, §2

[7] = tested on: nightshade (eastern black nightshade, Solanum ptycanthum); test: Test E pre-/postemergence: nightshade; conditions: Preemergence, scale 0 to 100
From the text: as §1, §2

[8] = tested on: pigweed, palmer (palmer pigweed, Amaranthus palmeri); test: Test F pre-/postemergence: pigweed, palmer; conditions: Postemergence, scale 0 to 100
From the text: (§3) Seeds of plant species selected from corn (Zea mays), soybean (Glycine max), velvetleaf (Abutilon theophrasti), lambsquarters (Chenopodium album), poinsettia, wild (wild poinsettia, Euphorbia heterophylla), pigweed, palmer (palmer pigweed, Amaranthus palmeri), waterhemp (common waterhemp, Amaranthus rudis), surinam grass (Brachiaria decumbens), crabgrass, Brazil (Brazilian crabgrass, Digitaria horizontalis), panicum, fall (fall panicum Panicum dichotomiflorum), crabgrass, large (large crabgrass, Digitaria sanguinalis), foxtail, giant (giant foxtail, Setaria faberii), foxtail, green (green foxtail Setaria viridis), goosegrass (Eleusine indica), ragweed (common ragweed, Ambrosia elatior), barnyardgrass (Echinochloa crus-galli), sandbur (southern sandbur, Cenchrus echinatus), arrowleaf sida (Sida rhombifolia), ryegrass, Italian (Italian ryegrass, Lolium multiflorum), dayflower, VA (Virginia (VA) dayflower, Commelina virginica), field bindweed (Convolvulus arvensis), cocklebur (common cocklebur, Xanthium strumarium), morningglory (Ipomoea coccinea), nightshade (eastern black nightshade, Solanum ptycanthum), kochia (Kochia scoparia), nutsedge, yellow (yellow nutsedge, Cyperus esculentus), johnsongrass (Sorghum halepense), smartweed (ladysthumb smartweed, Polygonum persicaria), and beggarticks (hairy beggarticks, Bidens pilosa), were planted into a silt loam soil and treated preemergence with test chemicals formulated in a non-phytotoxic solvent mixture which included a surfactant. At the same time, plants selected from these crop and weed species and also pigweed (Amaranthus retroflexus), waterhemp_RES1 (ALS/Triazine resistant common waterhemp, Amaranthus rudis) and waterhemp_RES2 (ALS/HPPD resistant common waterhemp, Amaranthus rudis) were planted in pots containing a planting medium comprising spaghnum peat moss, vermiculite, wetting agent and starter nutrients treated with postemergence applications of some of the test chemicals formulated in the same manner. Plants ranged in height from 2 to 18 cm for postemergence treatments (1- to 4-leaf stage).
as §2

[9] = tested on: surinam grass (Brachiaria decumbens); test: Test F pre-/postemergence: surinam grass; conditions: Preemergence
From the text: as §3, §2

[10] = tested on: foxtail, green (green foxtail Setaria viridis); test: Test F pre-/postemergence: foxtail, green; conditions: Preemergence
From the text: as §3, §2

[11] = tested on: ragweed (common ragweed, Ambrosia elatior); test: Test F pre-/postemergence: ragweed; conditions: Preemergence
From the text: as §3, §2

[12] = 16 g ai/ha, scale 0 to 100 (0 no effect, 100 complete control)
[13] = 31 g ai/ha, scale 0 to 100 (0 no effect, 100 complete control)

Cc1nn(-c2ccc(F)cc2)nc1Cc1ccnc(C(F)(F)F)c1 [Compound 16, 4-[[2-(4-fluorophenyl)-5-methyl-2H-1,2,3-triazol-4-yl]methyl]-2-(trifluoromethyl)pyridine]
Plant response rating: Crabgrass, Large ([1]; 8 g ai/ha): 0
Plant response rating: Crabgrass, Large ([1]; 16 g ai/ha): 5
Plant response rating: Crabgrass, Large ([1]; 31 g ai/ha): 5
Plant response rating: Crabgrass, Large ([1]; 62 g ai/ha): 90
Plant response rating: Crabgrass, Large ([1]; 125 g ai/ha): 90
Plant response rating: Johnsongrass ([2]; 8 g ai/ha): 0
Plant response rating: Johnsongrass ([2]; 16 g ai/ha): 15
Plant response rating: Johnsongrass ([2]; 31 g ai/ha): 20
Plant response rating: Johnsongrass ([2]; 62 g ai/ha): 40
Plant response rating: Johnsongrass ([2]; 125 g ai/ha): 98
Plant response rating: Cocklebur ([3]; 16 g ai/ha): 0
Plant response rating: Cocklebur ([3]; 31 g ai/ha): 0
Plant response rating: Cocklebur ([3]; 62 g ai/ha): 0
Plant response rating: Cocklebur ([3]; 125 g ai/ha): 0
Plant response rating: Goosegrass ([4]; 8 g ai/ha): 40
Plant response rating: Goosegrass ([4]; 16 g ai/ha): 40
Plant response rating: Goosegrass ([4]; 31 g ai/ha): 98
Plant response rating: Goosegrass ([4]; 62 g ai/ha): 100
Plant response rating: Goosegrass ([4]; 125 g ai/ha): 100
Plant response rating: Panicum, Fall ([5]; Preemergence, 8 g ai/ha): 0
Plant response rating: Panicum, Fall ([5]; Preemergence, 16 g ai/ha): 70
Plant response rating: Panicum, Fall ([5]; Preemergence, 31 g ai/ha): 100
Plant response rating: Panicum, Fall ([5]; Preemergence, 62 g ai/ha): 100
Plant response rating: Panicum, Fall ([5]; Preemergence, 125 g ai/ha): 100
Plant response rating: Velvetleaf ([6]; 8 g ai/ha): 0
Plant response rating: Velvetleaf ([6]; 16 g ai/ha): 20
Plant response rating: Velvetleaf ([6]; 31 g ai/ha): 30
Plant response rating: Velvetleaf ([6]; 62 g ai/ha): 80
Plant response rating: Velvetleaf ([6]; 125 g ai/ha): 80
Plant response rating: Nightshade ([7]; 8 g ai/ha): 0
Plant response rating: Nightshade ([7]; 16 g ai/ha): 0
Plant response rating: Nightshade ([7]; 31 g ai/ha): 50
Plant response rating: Nightshade ([7]; 62 g ai/ha): 100
Plant response rating: Nightshade ([7]; 125 g ai/ha): 100

Cc1nn(-c2ccc(F)c(F)c2)nc1Oc1ccnc(C(F)(F)F)c1 [Compound 145]
Plant response rating, Pigweed, Palmer ([8]; 8 g ai/ha): 40
Plant response rating, Pigweed, Palmer ([8]; 16 g ai/ha): 70
Plant response rating, Pigweed, Palmer ([8]; 62 g ai/ha): 85
Plant response rating, Pigweed, Palmer ([8]; 125 g ai/ha): 90

Cc1nn(-c2ccc(F)cc2)nc1Oc1ccnc(C(F)(F)F)c1 [Compound 129, 4-[[2-(4-fluorophenyl)-5-methyl-2H-1,2,3-triazol-4-yl]oxy]-2-(trifluoromethyl)pyridine]
Plant response rating: Crabgrass, Large ([1]; 8 g ai/ha): 0
Plant response rating: Crabgrass, Large ([1]; 16 g ai/ha): 10
Plant response rating: Crabgrass, Large ([1]; 31 g ai/ha): 80
Plant response rating: Crabgrass, Large ([1]; 62 g ai/ha): 100
Plant response rating: Crabgrass, Large ([1]; 125 g ai/ha): 100
Plant response rating: Johnsongrass ([2]; 8 g ai/ha): 0
Plant response rating: Johnsongrass ([2]; 16 g ai/ha): 20
Plant response rating: Johnsongrass ([2]; 31 g ai/ha): 20
Plant response rating: Johnsongrass ([2]; 62 g ai/ha): 20
Plant response rating: Johnsongrass ([2]; 125 g ai/ha): 25
Plant response rating: Cocklebur ([3]; 8 g ai/ha): 0
Plant response rating: Cocklebur ([3]; 16 g ai/ha): 0
Plant response rating: Cocklebur ([3]; 31 g ai/ha): 0
Plant response rating: Cocklebur ([3]; 62 g ai/ha): 35
Plant response rating: Cocklebur ([3]; 125 g ai/ha): 35
Plant response rating: Goosegrass ([4]; 8 g ai/ha): 40
Plant response rating: Goosegrass ([4]; 16 g ai/ha): 40
Plant response rating: Goosegrass ([4]; 31 g ai/ha): 50
Plant response rating: Goosegrass ([4]; 62 g ai/ha): 60
Plant response rating: Goosegrass ([4]; 125 g ai/ha): 100
Plant response rating: Panicum, Fall ([5]; Preemergence, 8 g ai/ha): 0
Plant response rating: Panicum, Fall ([5]; Preemergence, 16 g ai/ha): 35
Plant response rating: Panicum, Fall ([5]; Preemergence, 31 g ai/ha): 98
Plant response rating: Panicum, Fall ([5]; Preemergence, 62 g ai/ha): 100
Plant response rating: Panicum, Fall ([5]; Preemergence, 125 g ai/ha): 100
Plant response rating: Velvetleaf ([6]; 8 g ai/ha): 0
Plant response rating: Velvetleaf ([6]; 16 g ai/ha): 0
Plant response rating: Velvetleaf ([6]; 31 g ai/ha): 0
Plant response rating: Velvetleaf ([6]; 62 g ai/ha): 20
Plant response rating: Velvetleaf ([6]; 125 g ai/ha): 25
Plant response rating: Nightshade ([7]; 8 g ai/ha): 0
Plant response rating: Nightshade ([7]; 16 g ai/ha): 0
Plant response rating: Nightshade ([7]; 31 g ai/ha): 0
Plant response rating: Nightshade ([7]; 62 g ai/ha): 50
Plant response rating: Nightshade ([7]; 125 g ai/ha): 60

Cc1nn(-c2ccc(C(F)(F)F)cc2)nc1Cc1ccnc(C(F)(F)F)c1 [Compound 47, 4-[[5-methyl-2-[4-(trifluoromethyl)phenyl]-2H-1,2,3-triazol-4-yl]methyl]-2-(trifluoromethyl)pyridine]
Plant response rating: Crabgrass, Large ([1]; 16 g ai/ha): 20
Plant response rating: Crabgrass, Large ([1]; 31 g ai/ha): 75
Plant response rating: Crabgrass, Large ([1]; 62 g ai/ha): 100
Plant response rating: Crabgrass, Large ([1]; 125 g ai/ha): 100
Plant response rating: Crabgrass, Large ([1]; 250 g ai/ha): 100
Plant response rating: Johnsongrass ([2]; 16 g ai/ha): 25
Plant response rating: Johnsongrass ([2]; 31 g ai/ha): 30
Plant response rating: Johnsongrass ([2]; 62 g ai/ha): 35
Plant response rating: Johnsongrass ([2]; 125 g ai/ha): 40
Plant response rating: Johnsongrass ([2]; 250 g ai/ha): 100
Plant response rating: Cocklebur ([3]; 16 g ai/ha): 0
Plant response rating: Cocklebur ([3]; 31 g ai/ha): 10
Plant response rating: Cocklebur ([3]; 62 g ai/ha): 20
Plant response rating: Cocklebur ([3]; 125 g ai/ha): 35
Plant response rating: Cocklebur ([3]; 250 g ai/ha): 50
Plant response rating: Goosegrass ([4]; 16 g ai/ha): 100
Plant response rating: Goosegrass ([4]; 31 g ai/ha): 100
Plant response rating: Goosegrass ([4]; 125 g ai/ha): 100
Plant response rating: Goosegrass ([4]; 250 g ai/ha): 100
Plant response rating: Panicum, Fall ([5]; Postemergence, 250 g ai/ha): 40
Plant response rating: Panicum, Fall ([5]; Postemergence, 16 g ai/ha): 10
Plant response rating: Panicum, Fall ([5]; Postemergence, 31 g ai/ha): 20
Plant response rating: Panicum, Fall ([5]; Postemergence, 62 g ai/ha): 30
Plant response rating: Panicum, Fall ([5]; Postemergence, 125 g ai/ha): 30
Plant response rating: Panicum, Fall ([5]; Preemergence, 16 g ai/ha): 100
Plant response rating: Panicum, Fall ([5]; Preemergence, 31 g ai/ha): 100
Plant response rating: Panicum, Fall ([5]; Preemergence, 62 g ai/ha): 100
Plant response rating: Panicum, Fall ([5]; Preemergence, 125 g ai/ha): 100
Plant response rating: Panicum, Fall ([5]; Preemergence, 250 g ai/ha): 100
Plant response rating: Velvetleaf ([6]; 16 g ai/ha): 30
Plant response rating: Velvetleaf ([6]; 31 g ai/ha): 40
Plant response rating: Velvetleaf ([6]; 62 g ai/ha): 40
Plant response rating: Velvetleaf ([6]; 125 g ai/ha): 75
Plant response rating: Velvetleaf ([6]; 250 g ai/ha): 100
Plant response rating: Nightshade ([7]; 31 g ai/ha): 75
Plant response rating: Nightshade ([7]; 62 g ai/ha): 98
Plant response rating: Nightshade ([7]; 125 g ai/ha): 98
Plant response rating: Nightshade ([7]; 250 g ai/ha): 98

Fc1ccc(-n2nc(Cc3ccnc(C(F)(F)F)c3)c(OCC(F)(F)F)n2)cc1 [Compound 142]
Plant response rating, Surinam Grass [9, 12]: 5
Plant response rating, Surinam Grass [9, 13]: 5
Plant response rating, Surinam Grass ([9]; 125 g ai/ha, scale 0 to 100): 60
Plant response rating, Foxtail, Green [10, 12]: 20
Plant response rating, Foxtail, Green [10, 13]: 75
Plant response rating, Foxtail, Green ([10]; 62 g ai/ha, scale 0 to 100): 98
Plant response rating, Foxtail, Green ([10]; 125 g ai/ha, scale 0 to 100): 100
Plant response rating, Ragweed [11, 12]: 0
Plant response rating, Ragweed [11, 13]: 0
Plant response rating, Ragweed ([11]; 125 g ai/ha, scale 0 to 100): 40
